# Source: PubChem BioAssay (NCI)
# Where “and” joins values, the source holds several entries; their conditions need not be identical. Identical values can stand only once.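 Protocol summary: plate cells (96-well), add compound at 5 concentrations, incubate 48 h, interpolate endpoints linearly. GI50: concentration for 50% inhibition of growth. TGI denotes the concentration required for complete inhibition of growth.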
# Test system: MDA-MB-231 breast
# Assay: DTP human tumour cell line panel, 48 h
SMILES,TGI [µM],GI50 [µM]
CCC(C)(O)c1cnc(CC(C)C)c(=O)n1O (stereo not given),> 100,
Nc1cc2c(cc1Br)[nH]c(=O)c1ccccc12,54.9,3.37
COc1cc2c(/C=N\N=C(N)N)c[nH]c2cc1C,34.1,14.7
COc1ccc(-c2nc(-c3cc(OC)cc(OC)c3)[nH]c2-c2ccc(OC)cc2)cc1,> 100,6.82
CN(C)CCNCCN,> 100,
CC(C)CC(C/C=C1/CC(CO)(COC(=O)C(C)(C)C)OC1=O)CC(C)C (stereo not given),17.4,
COc1cc(/C=C\c2cc(OC)c(OC)c(OC)c2)cc(N/C=C\C(=O)c2c[nH]c3ccccc23)c1OC,4.11,1.73
CCCC/C(=C\C1=C(C)C(=O)C(OC)=C(OC)C1=O)C(=O)O,> 100,33.9
COc1ccc(-c2nn(-c3cccc(Cl)c3)cc2-c2cc(-c3ccccc3)[nH]c(=O)c2C#N)cc1,10.4,1.24
CCCC(=O)C1=C(O)C(Cc2c(O)c(C)c(O)c(C(=O)CCC)c2O)=C(O)C(C)(C)C1=O,> 50,
CCC/C=C/C=C/C1CC(O)C(O)C(=O)C1CO (stereo not given),> 100,

# Test system: NCI-H460 lung
# Assay: DTP human tumour cell line panel, 48 h
SMILES,GI50,TGI
O=C1CCCN1c1ccccc1I(=O)=O,> 100 µM,> 100 µM
O=C(O)c1cccc(COc2ccc([N+](=O)[O-])cc2Cl)c1,> 100 µM,> 100 µM
COC(=O)C1=COC(C)C2CN3CCc4c([nH]c5ccccc45)C3CC12 (stereo not given),24 µM and > 100 µM,58.8 µM and > 100 µM
CCC(C)(O)c1cnc(CC(C)C)c(=O)n1O (stereo not given),,81.8 µM
Nc1cc2c(cc1Br)[nH]c(=O)c1ccccc12,3.66 µM,18.5 µM
COc1cc2c(/C=N\N=C(N)N)c[nH]c2cc1C,14.7 µM,27.8 µM
Cn1cc(-c2csc(-c3cn(CCCCN4CCCCC4)c4ccccc34)n2)c2cccnc21,1.83 µM,3.44 µM
COc1ccc(-c2nc(-c3cc(OC)cc(OC)c3)[nH]c2-c2ccc(OC)cc2)cc1,5.98 µM,> 100 µM
CN(C)CCNCCN,,> 100 µM
CC(C)CC(C/C=C1/CC(CO)(COC(=O)C(C)(C)C)OC1=O)CC(C)C (stereo not given),,17.8 µM and 5.69 µM
COc1cc(/C=C\c2cc(OC)c(OC)c(OC)c2)cc(N/C=C\C(=O)c2c[nH]c3ccccc23)c1OC,5.6 µM,27.1 µM
CCCC/C(=C\C1=C(C)C(=O)C(OC)=C(OC)C1=O)C(=O)O,> 100 µM,> 100 µM
COc1ccc(-c2nn(-c3cccc(Cl)c3)cc2-c2cc(-c3ccccc3)[nH]c(=O)c2C#N)cc1,2.35 µM,> 50 µM
CC1CC(O)C(=O)C(O[C@@H]2C[C@@H]3CC[C@@H]4[C@H](CC[C@]5(C)C(C6=CC(=O)OC6)CC[C@]45O)[C@@]3(C=O)C[C@H]2O)O1 (stereo not given in full),,0.0414 µM
CCCC(=O)C1=C(O)C(Cc2c(O)c(C)c(O)c(C(=O)CCC)c2O)=C(O)C(C)(C)C1=O,,43.1 µM
CCC/C=C/C=C/C1CC(O)C(O)C(=O)C1CO (stereo not given),,> 100 µM

# Test system: U251 CNS
# Assay: DTP human tumour cell line panel, 48 h
SMILES,GI50,TGI
O=C1CCCN1c1ccccc1I(=O)=O,> 100 µM,> 100 µM
O=C(O)c1cccc(COc2ccc([N+](=O)[O-])cc2Cl)c1,> 100 µM,> 100 µM
COC(=O)C1=COC(C)C2CN3CCc4c([nH]c5ccccc45)C3CC12 (stereo not given),24.6 µM and > 100 µM,81.4 µM and > 100 µM
CCC(C)(O)c1cnc(CC(C)C)c(=O)n1O (stereo not given),,> 100 µM
COc1cc2c(/C=N\N=C(N)N)c[nH]c2cc1C,13.2 µM,27.3 µM
CN(C)CCNCCN,,> 100 µM
CC(C)CC(C/C=C1/CC(CO)(COC(=O)C(C)(C)C)OC1=O)CC(C)C (stereo not given),,21.7 µM
COc1cc(/C=C\c2cc(OC)c(OC)c(OC)c2)cc(N/C=C\C(=O)c2c[nH]c3ccccc23)c1OC,3.84 µM,15.7 µM
CCCC/C(=C\C1=C(C)C(=O)C(OC)=C(OC)C1=O)C(=O)O,> 100 µM,> 100 µM
COc1ccc(-c2nn(-c3cccc(Cl)c3)cc2-c2cc(-c3ccccc3)[nH]c(=O)c2C#N)cc1,1.48 µM,6.76 µM
CC1CC(O)C(=O)C(O[C@@H]2C[C@@H]3CC[C@@H]4[C@H](CC[C@]5(C)C(C6=CC(=O)OC6)CC[C@]45O)[C@@]3(C=O)C[C@H]2O)O1 (stereo not given in full),,< 0.0486 µM
CCCC(=O)C1=C(O)C(Cc2c(O)c(C)c(O)c(C(=O)CCC)c2O)=C(O)C(C)(C)C1=O,,> 50 µM
CCC/C=C/C=C/C1CC(O)C(O)C(=O)C1CO (stereo not given),,> 100 µM

# Test system: UO-31 renal
# Assay: DTP human tumour cell line panel, 48 h
SMILES,GI50,TGI
O=C1CCCN1c1ccccc1I(=O)=O,> 100 µM,> 100 µM
O=C(O)c1cccc(COc2ccc([N+](=O)[O-])cc2Cl)c1,> 100 µM,> 100 µM
COC(=O)C1=COC(C)C2CN3CCc4c([nH]c5ccccc45)C3CC12 (stereo not given),20.8 µM and > 100 µM,> 100 µM
CCC(C)(O)c1cnc(CC(C)C)c(=O)n1O (stereo not given),,> 100 µM
Nc1cc2c(cc1Br)[nH]c(=O)c1ccccc12,2.73 µM,18.5 µM
COc1cc2c(/C=N\N=C(N)N)c[nH]c2cc1C,> 100 µM,> 100 µM
Cn1cc(-c2csc(-c3cn(CCCCN4CCCCC4)c4ccccc34)n2)c2cccnc21,1.51 µM,2.95 µM
COc1ccc(-c2nc(-c3cc(OC)cc(OC)c3)[nH]c2-c2ccc(OC)cc2)cc1,5.72 µM,> 100 µM
CN(C)CCNCCN,,> 100 µM
CC(C)CC(C/C=C1/CC(CO)(COC(=O)C(C)(C)C)OC1=O)CC(C)C (stereo not given),10.8 µM and 3.51 µM,23 µM and 17.1 µM
COc1cc(/C=C\c2cc(OC)c(OC)c(OC)c2)cc(N/C=C\C(=O)c2c[nH]c3ccccc23)c1OC,0.326 µM,2.05 µM
CCCC/C(=C\C1=C(C)C(=O)C(OC)=C(OC)C1=O)C(=O)O,> 100 µM,> 100 µM
CC1CC(O)C(=O)C(O[C@@H]2C[C@@H]3CC[C@@H]4[C@H](CC[C@]5(C)C(C6=CC(=O)OC6)CC[C@]45O)[C@@]3(C=O)C[C@H]2O)O1 (stereo not given in full),,0.22 µM
CCCC(=O)C1=C(O)C(Cc2c(O)c(C)c(O)c(C(=O)CCC)c2O)=C(O)C(C)(C)C1=O,,> 50 µM
c1coc(-c2c3ccc(=[N+]4CCCCC4)cc-3oc3cc(N4CCCCC4)ccc23)c1,0.0353 µM,0.336 µM
CCC/C=C/C=C/C1CC(O)C(O)C(=O)C1CO (stereo not given),,> 100 µM
